Test results from US20070128265A1, “Regulation of cell proliferation and differentiation using topically applied peptides” (priority 2000, published 2007).

Tests used:
psoriatic lesion = experiment: One patient with chronic psoriasis: topical PTH (1-34) followed by calcipotriene cream; assay type: in vivo
Text: One patient with chronic psoriasis received topically PTH (1-34) for two months. […] The patient returned two weeks later and, on the lesion treated with PTH (1-34) and the placebo lesion, received topically calcipotriene cream. […] Therefore, the combination therapy of PTH (1-34) followed by calcipotriene or other activated vitamin D compounds can be an effective therapeutic approach for treating psoriasis.

hair follicles = experiment: Macroscopic evaluation of hair cycle progression in depilated C57 BL/6 mice; assay type: in vivo; conditions: for hair growth progression (progression of hair follicles into anagen), macroscopic evaluation: 10 μg in 30 μl Novasome topically daily for seven days
Procedure: (§1) C57 BL/6 were purchased from Jackson Labs and were in their telogen state of hair development. The animals were depilated as previously described (1). Groups of six animals received daily a topical application of either 10 μg of PTH (1-34) in 30 μl of Novasome or their depilatated backs, 10 μg of PTH (7-34)/30 μl of Novasome, or 30 μl of Novasome. The animals were dosed daily for seven days. Macroscopic evaluation and tritiated thymidine and bromouridine analysis was made on day seven as previously described (1, 2, 3, 4).

hair follicle cells = experiment: BRDU staining of hair follicle cells in depilated C57 BL/6 mice; assay type: in vivo; conditions: 10 μg in 30 μl Novasome topically daily for seven days
Procedure: as §1

epidermis = experiment: Tritiated thymidine incorporation into epidermal DNA in SKH-1 hairless mice; assay type: in vivo
Procedure: SKH-1 hairless mice received topically daily for 60 days either 10 μg of PTH (1-34) formulated in Novasome A, PTH (7-34) formulated in Novasome A, or Novasome A without any PTH analog to serve as the control group. The animals received ^3H-tritiated thymidine for the evaluation of epidermal proliferation as previously described.

psoriatic lesions = experiment: Double blind placebo controlled trial in chronic psoriasis, clinical improvement of lesions; assay type: in vivo, patients; conditions: 20 μg/0.1 ml in Novasome topically, two months
Text: Nine patients with chronic psoriasis were enrolled in a double blind placebo controlled trial. […] The percentage of clinical improvement of scaling, erythema, and induration for the lesion treated with placebo was 17.2, 15, and 30%, respectively. For the lesion treated with PTH (1-34), there was a marked improvement in scaling of 30.9%, erythema 34%, and induration 52%, respectively.

[1] = test system: epidermis of psoriatic lesions; experiment: Skin biopsies of psoriatic lesions: hemotoxilin and eosin staining, immunohistochemistry for PCNA and transglutaminase; assay type: in vivo, patients; conditions: treated lesions compared to placebo treated lesions, two months
mammalian cells = conditions: U.S. Pat. Nos. 5,527,772, 5,840,690 and 6,066,618; agonists or antagonists of PTH and PTHrP; cited from earlier work

Compound: C=C1/C(=C\C=C2/CCC[C@]3(C)[C@@H]([C@H](C)/C=C/[C@@H](O)C4CC4)CC[C@@H]23)C[C@@H](O)C[C@@H]1O [calcipotriene, reference compound]
- response of psoriatic lesion after two months of topical calcipotriene cream (psoriatic lesion; lesion pretreated two months with PTH (1-34) or with Novasome placebo): no significant improvement

Compound: PTH (1-34): parathyroid hormone fragment (1-34), agonist peptide; tested topically formulated in Novasome A liposomes
- hair growth progression (progression of hair follicles into anagen), macroscopic evaluation (hair follicles): decrease in hair growth progression
- BRDU staining of the hair follicles (hair follicle cells): demonstrated a decrease
- decrease in DNA synthesis (proliferation) compared to the control group (epidermis; 10 μg topically daily for 60 days in Novasome A, 3H-thymidine): 25%
- percentage of clinical improvement of erythema (psoriatic lesions): 34%
- percentage of clinical improvement of induration (psoriatic lesions): 52%
- percentage of clinical improvement of scaling (psoriatic lesions): 30.9%
- PCNA staining in skin biopsies [1]: restoration of the PCNA staining in the basal layer
- proliferation of the epidermis in skin biopsies [1]: marked decrease in the proliferation of the epidermis
- transglutaminase staining in skin biopsies [1]: restoration of transglutaminase staining in the upper granular layer
- response of psoriatic lesion (psoriatic lesion; topical PTH (1-34) for two months): minimal response
- effect on proliferation and differentiation of mammalian cells (mammalian cells): inhibit proliferation and enhance differentiation of mammalian cells

Compound: PTH (3-34): parathyroid hormone fragment (3-34), agonist of PTH and PTHrP (SEIQLMHNLGKHLNSMERVEWLRKKLQDVHNF; Parathyroid hormone; UniProt P01270 34-65, looked up, fragment)
- effect on proliferation and differentiation of mammalian cells (mammalian cells): inhibit proliferation and enhance differentiation of mammalian cells

Compound: PTH (7-34): parathyroid hormone fragment (7-34), antagonist peptide; tested topically formulated in Novasome A liposomes (LMHNLGKHLNSMERVEWLRKKLQDVHNF; Parathyroid hormone Novasome A liposome formulation; UniProt P01270 38-65, looked up, fragment)
- hair growth progression (progression of hair follicles into anagen), macroscopic evaluation (hair follicles): increase in the progression of the hair follicles into their proliferative anagen state
- increase in the anagen area (hair follicles; 10 μg topically daily for seven days, formulated in Novasome A): 155%
- BRDU staining of the hair follicles (hair follicle cells): increase in BRDU staining of the hair follicle
- enhancement in DNA synthesis (proliferation) compared to the control group (epidermis; 10 μg topically daily for 60 days in Novasome, 3H-thymidine in the epidermis): more than two fold enhancement
- effect on proliferation and differentiation of mammalian cells (mammalian cells): enhance the proliferation of mammalian cells

Compound: PTHrP (1-34): parathyroid related peptide fragment (1-34), agonist of PTH and PTHrP
- effect on proliferation and differentiation of mammalian cells (mammalian cells): inhibit proliferation and enhance differentiation of mammalian cells

Compound: PTHrP (7-34): parathyroid related peptide fragment (7-34), antagonist of PTH and PTHrP
- effect on proliferation and differentiation of mammalian cells (mammalian cells): enhance the proliferation of mammalian cells
